# Results as given in US10000469B2, “Heat shock protein 70 (hsp-70) receptor ligands” (Duke University, priority 2014, dated 2018).
# Entries after “also recorded” stand apart in the source; their conditions may differ.
# Legend:
# RWPE1 = assay: Cell proliferation, RWPE1; format: cell-based; details: non tumorigenic RWPE1
# Description: (§1) Cell Proliferation: Cell proliferation was determined using a Hoechst stain (Sigma, St. Louis, Mo.) to quantify DNA. 5,000 cells of the designated cell line were plated in 96 well plates and treated the next day, designated as time point 0, with the indicated concentration of the specified compound maintained for the duration of the assay. At the indicated time points the media was removed and plated frozen at −80° C. Double distilled H2O was then added and the plates were incubated at 37° C. for 1 hour. After 1 hour the plates were frozen at −80° C. After freezing the plates were thawed and Hoechst stain was diluted 1:1000 in THE buffer (10 mM Tris, 2M NaCl, 1 mM Na2EDTA). The final fluorescence was measured on the Victor X2 plate reader at 355/460 nm, and cell proliferation was determined with the formula: % Cell Proliferation=100×(Sample fluorescence−background fluorescence)/(Control fluorescence−background fluorescence).
# HS-72 in vivo MTD = details: wild-type mice, IP biweekly for 35 days, up to 30 mg/kg
# Description: HS-72 in vivo MTD and blood workup: The 5 cohorts consisted of 3 mice each given HS-72 BiW and administered IP in DMSO at 1, 5, 10, 20 and 30 mpk using female FVBs aged to 10 weeks. Body Mass was measured weekly and the mice were monitored for signs of toxicity as per MP1U standard protocol. For blood analysis, 4 mice were injected IP with HS-72 on day 1 and 4, with blood drawn on day 5. 4 mice receiving no treatment were used as controls.
# MMTV-neu mice = assay: HS-72 in vivo efficacy study; design: species or system mouse; details: for tumor volume vs. no treatment: at 21 days, p<0.05
# Description: HS-72 in vivo Efficacy Studies: MMTV-neu mice, a HER2 overexpression breast cancer mouse model in which HER2 is under the transcriptional control of the mouse mammary tumor virus promoter/enhancer, were treated with the indicated doses and dosing schedule [Taneja et al., 2009]. All doses were delivered through IP injections using DMSO and their tumors were calipered once weekly. The mice were culled upon reaching tumor burden or if they expressed signs of toxicity as per MP1U standard protocol.
# Hsp70i [1] = target: T1, Hsp70i (Homo sapiens, UniProt P0DMV8); assay: Partial proteolysis of Hsp70i with trypsin; design: Full length Hsp70 (black arrow) and tryptic fragments (blue arrows); His tag (cleaved yes); made in house; details: 100 uM compound, silver stain
# T1 sequence (P0DMV8 whole entry, the tested form may be a part): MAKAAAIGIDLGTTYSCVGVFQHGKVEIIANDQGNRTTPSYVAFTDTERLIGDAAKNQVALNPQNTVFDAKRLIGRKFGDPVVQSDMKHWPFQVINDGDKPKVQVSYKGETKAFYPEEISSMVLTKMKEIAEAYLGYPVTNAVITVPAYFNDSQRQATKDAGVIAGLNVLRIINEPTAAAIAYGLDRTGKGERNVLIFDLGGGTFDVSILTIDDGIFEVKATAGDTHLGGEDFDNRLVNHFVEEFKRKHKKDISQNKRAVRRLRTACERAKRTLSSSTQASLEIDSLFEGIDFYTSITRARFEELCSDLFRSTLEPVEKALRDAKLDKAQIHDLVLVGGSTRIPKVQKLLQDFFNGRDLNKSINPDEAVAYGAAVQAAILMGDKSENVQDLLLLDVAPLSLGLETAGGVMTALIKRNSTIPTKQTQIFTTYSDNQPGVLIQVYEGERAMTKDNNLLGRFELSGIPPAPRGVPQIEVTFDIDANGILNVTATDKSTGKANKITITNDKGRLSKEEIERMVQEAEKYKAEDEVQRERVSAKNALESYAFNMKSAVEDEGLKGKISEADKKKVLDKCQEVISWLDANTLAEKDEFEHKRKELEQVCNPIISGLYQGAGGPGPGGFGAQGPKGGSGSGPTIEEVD
# Description: Mass Spectrometry: Tryptic peptides were subjected to matrix-assisted laser desorption-ionization mass spectrometry (MALDI-MS) on an ABSCIEX TOF/TOF 5800 mass spectrometer. Positive mode time of flight was used to identify peptides, and individual peptides were sequenced by MS/MS. All sequence and peptide fingerprint data was searched using the UniProt database.
# Partial Proteolysis: Hsp70i (8 μg for SDS-PAGE analysis, 2 μg for mass spec analysis) was incubated with 1 mM ATP, 1 mM ADP, 100 uM HS72, 100 uM HS72+1 mM ATP, or 100 uM HS72+1 mM ADP for 30 min. at room temperature. Hsp70i was digested by adding 0.1 μg of trypsin (Promega, Madison, Wis.) per 2 μg of protein and was quenched by addition of 25% TFA for mass spec analysis or addition of 5×SDS loading buffer and boiling for SDS-PAGE analysis at 2 hours, or 24 hours. Gels were visualized by silver stain.
# [2] = tested on: LnCaP prostate cancer cell lines; assay: Cell proliferation, LNCaP; format: cell-based
# Description: as §1
# Hsp70i [3] = target: T1, Hsp70i; assay: Thermofluor assay, purified Hsp70i; format: binding; design: Full length Hsp70 (black arrow) and tryptic fragments (blue arrows); His tag (cleaved yes); made in house; details: for decrease of ATP bound Hsp70i Tm: in presence of ATP; for decrease of the Tm of Hsp70i: no nucleotide
# Description: Protein Purification: Plasmids were provided for human HSPA1A, HSPA8, and HSPA1A C306D. Plasmids were transformed in Rosetta competent cells and single colonies were picked from streaked LB/ampicillin/chloramphenicol plates. Cultures were grown at 37° C. for 4-6 hours, were cooled to 15° C. and expression was induced overnight with 200 uM isopropyl 1-thio-β-D-galactopyranoside. Cells were pelleted and resuspended in Ni-lysis buffer (50 mM Na2HPO4, 300 mM NaCl, 10 mM Imidazole, 0.05% Tween-20) supplemented with Complete Mini protease inhibitor tablets (Roche, Mannheim, Germany) and […], and then sonicated. The cells were again pelleted and the supernatant was incubated with complete His-Tag purification resin (Roche, Mannheim, Germany) for 5 hours at 4° C. The resin was washed with Ni-wash buffer (50 mM Na2HPO4, 300 mM NaCl, 20 mM Imidazole, 0.05% Tween-20) and eluted with Ni-elution buffer (50 mM Na2HPO4, 300 mM NaCl, 250 mM Imidazole, 0.05% Tween-20). The elution was then incubated with tobacco etch virus protease overnight at 4° C. The following day the elution was incubated with the γ-phosphate ATP sepharose resin for 30 minutes at 4° C. Next the resin was washed with ATP-wash buffer (50 mMTris-HCl, 60 mM MgCl2, 60 mM KCl, 10 mM Citrate) supplemented with 1 mM DTT and then ATP-wash buffer supplemented with 2 mM ATP was added to the resin to elute the protein. The final elutions were concentrated in Amicon Ultra-15 Centrifugal Filter Units (EMD Millipore, Billerica, Mass.) and buffer exchanged into 25 mM HEPES, 5 mM MgCl2, 10 mM KCl (pH 7.5) and stored at −80° C. until use.
# Thermofluor Assay: SYPRO orange (Molecular Probes, Eugene, Oreg.) was diluted 1:1000 in 25 mM HEPES, 5 mM MgCl2, 10 mM KCl (pH 7.5) and purified Hsp70i, Hsc70, Hsp70i C306, or Hsp90, was then added to a final dilution of 0.04 mg/ml. Where indicated 0.001% or 0.01% Triton X-100 (Sigma) was also added. The indicated compound or DMSO was then added at the specified concentration and each sample was added as 5 replicates to a 384 well plate (BioRad, Hercules, Calif.). A melt curve protocol (25° C. to 90° C., increasing 0.5° C. and a plate reading every 30 seconds) was run on a CFX384 Touch™ Real-Time PCR Detection System (BioRad). To determine the midpoint of the protein unfolding transition or Tm, GraphPad Prisim4 (La Jolla, Calif.) was used to normalize the melt curve and to calculate the first derivate of the melt curve, with the steepest point of the slope being the Tm.
compound,measurement,setting,value
"CCCn1c(NC(=O)[C@H]2CCCN(c3cnccn3)C2)nc2ccccc21 [HS-72, (S)—N-(1-propyl-1H-benzo[d]imidazol-2-yl)-1-(pyrazin-2-yl)piperidine-3-carboxamide]",cell proliferation,RWPE1,insensitive; also recorded: only inhibited at the highest concentration tested
same,tolerability in dose escalation,HS-72 in vivo MTD,"no adverse events, reduction in body weight, or altered behavior"
same,increase of median survival vs. no treatment,MMTV-neu mice; I.P. 20 mpk BiW,6 days
same,tumor volume vs. no treatment,"MMTV-neu mice; I.P. 20 mpk BiW, 20 mg/kg",significant reduction
same,tumor volume vs. no treatment,"MMTV-neu mice; I.P. 20 mpk BiW, listed as HS72, 20 mg/kg",significant decrease
same,increase of median survival vs. no treatment,MMTV-neu mice; I.P. 20 mpk qd,13 days
same,proteolytic pattern of Hsp70i,Hsp70i [1],profound difference in the proteolytic pattern
same,cell proliferation,[2],inhibits proliferation
same,decrease of ATP bound Hsp70i Tm,Hsp70i [3]; 10 uM,0.5 °C
same,decrease of the Tm of Hsp70i,Hsp70i [3]; 10 uM,0.1 °C
same,decrease of ATP bound Hsp70i Tm,Hsp70i [3]; 100 uM,1 °C
same,decrease of the Tm of Hsp70i,Hsp70i [3]; 100 uM,0.5 °C
same,Tm of Hsp70 with compound alone vs. compound plus detergent,"Hsp70i [3]; 100 uM, 0.001% or 0.01% Triton",no difference
same,effect on Hsp70i Tm in combination with PES,Hsp70i [3]; absence or presence of ATP,no synergistic or additive effect
same,effect on Hsp70i Tm in combination with VER,Hsp70i [3]; absence or presence of ATP,no observed synergistic or additive effect
same,effect on Tm of Hsp70i,Hsp70i [3]; compound alone,decreased in a dose dependent manner
same,effect on Tm of ADP Hsp70i,Hsp70i [3]; in presence of ADP,does not change
